Values belong to the molecule of their own block, whether it stands above or below them.
Experiments:
[1] = system: FTE282E1, OVSAHO, HPNE, MiaPaCa2 and S2013 cell lines; test: growth inhibition assays in a panel of five cell lines; conditions: for potency rank among inhibitors treated as single agents: irrespective of the cell line
[2] = target: T1, IKKβ (Homo sapiens, UniProt O14920); test: target engagement in A2780 cells (click chemistry pull-down, Western blot); format: cell-based; conditions: 48 h
T1 construct: endogenous in cells; host or cells: A2780
T1 sequence (O14920 whole entry): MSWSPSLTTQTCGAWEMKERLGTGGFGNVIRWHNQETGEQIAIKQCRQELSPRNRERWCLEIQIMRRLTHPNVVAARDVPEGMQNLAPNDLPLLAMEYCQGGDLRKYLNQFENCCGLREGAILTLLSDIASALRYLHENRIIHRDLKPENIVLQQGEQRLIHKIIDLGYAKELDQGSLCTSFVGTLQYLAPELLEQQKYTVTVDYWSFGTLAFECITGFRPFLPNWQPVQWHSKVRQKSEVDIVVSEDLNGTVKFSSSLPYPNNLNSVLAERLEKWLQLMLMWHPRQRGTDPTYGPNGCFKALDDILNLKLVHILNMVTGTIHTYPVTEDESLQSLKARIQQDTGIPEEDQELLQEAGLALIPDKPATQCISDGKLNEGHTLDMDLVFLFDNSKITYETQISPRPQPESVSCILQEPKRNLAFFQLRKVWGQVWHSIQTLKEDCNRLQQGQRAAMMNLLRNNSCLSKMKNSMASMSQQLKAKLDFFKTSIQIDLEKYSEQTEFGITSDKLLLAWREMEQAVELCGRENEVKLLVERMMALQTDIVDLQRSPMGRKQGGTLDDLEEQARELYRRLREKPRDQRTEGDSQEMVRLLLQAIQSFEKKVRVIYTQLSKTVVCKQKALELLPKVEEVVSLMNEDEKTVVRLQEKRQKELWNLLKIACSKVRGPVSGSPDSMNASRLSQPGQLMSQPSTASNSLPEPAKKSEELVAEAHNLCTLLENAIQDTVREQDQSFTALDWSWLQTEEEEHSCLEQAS
Description: (§1) Briefly, the cells were incubated with 10 μM of compound 4 for […]. In cells, compound 4 is converted to compound 3 with an active methylene group which reacts with surface-exposed cysteine residues on proteins. The lysate was treated with click reagents (TCEP, TBTA and CuSO4) and azido-biotin. Biotin-tagged-3-bound proteins were subjected to monoavidin column. Biotin-tagged proteins were captured, the column was washed to removed untagged proteins and the biotin-tagged-3-bound proteins were eluted with regeneration buffer (6M urea/PBS). The eluted lysates were subjected to Western blot analyses and probed for proteins (IKKβ, RELA, IκBα and IKKγ) in the IKK complex.
(§2) To determine target engagement in cells, cancer cells (A2780) were treated with the compound 4, which is an alkyne-tagged analog of prodrug compound 19-AP1 for 48 h (FIG. 2B). Cells were then harvested, washed and pelleted. Unbound compound 4 was removed by extensively washing the cell pellet. The cell pellets were lysed, and 2 mg/mL of lysates were subjected to click chemistry with TAMRA-Biotin-Azide trifunctional probe (10 mM stock, 20 μL, click chemistry tools), and other click reagents (TCEP, 100 mM stock, 20 μL; TBTA 13.5 mM stock, 20 μL and CuSO4 100 mM stock, 10 μL) to make total volume of 1 mL. The reaction was incubated for 3 h at RT. The lysates were incubated with monomeric avidin beads for additional 1 h. […]

[3] = target: T2, RELA (Homo sapiens, UniProt Q04206); test: as above; format: cell-based; conditions: 48 h
T2 construct: endogenous in cells; host or cells: A2780
T2 sequence (Q04206 whole entry): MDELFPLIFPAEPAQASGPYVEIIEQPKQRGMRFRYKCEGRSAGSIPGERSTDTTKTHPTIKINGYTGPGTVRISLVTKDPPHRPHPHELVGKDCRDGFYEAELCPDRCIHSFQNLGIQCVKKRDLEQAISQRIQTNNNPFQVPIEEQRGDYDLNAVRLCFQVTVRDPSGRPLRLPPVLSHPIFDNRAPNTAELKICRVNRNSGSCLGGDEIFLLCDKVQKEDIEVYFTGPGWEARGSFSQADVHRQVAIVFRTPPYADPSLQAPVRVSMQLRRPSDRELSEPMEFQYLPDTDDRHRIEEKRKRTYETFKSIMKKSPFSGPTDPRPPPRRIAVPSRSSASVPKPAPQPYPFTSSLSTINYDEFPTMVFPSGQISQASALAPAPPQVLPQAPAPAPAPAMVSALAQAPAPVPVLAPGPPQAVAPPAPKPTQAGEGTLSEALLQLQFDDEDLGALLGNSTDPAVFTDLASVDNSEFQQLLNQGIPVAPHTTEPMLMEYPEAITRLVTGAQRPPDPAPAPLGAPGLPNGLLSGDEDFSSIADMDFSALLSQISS
Description: as §1, §2

[4] = system: FT282E1 immortalized fallopian tube epithelial cell line; test: growth inhibition, synergy studies; format: cell-based; conditions: for IC50: Epithelial cell, FT282E1, read-out: IC50 (Mean ± SD)
[5] = target: CDK4 (Homo sapiens, UniProt P11802); test: cell-free CDK inhibitor assay; format: biochemical; conditions: for fold less potent than palbociclib: CDK4; for IC50: CDK4, cell-free
CDK4, sequence (P11802 whole entry): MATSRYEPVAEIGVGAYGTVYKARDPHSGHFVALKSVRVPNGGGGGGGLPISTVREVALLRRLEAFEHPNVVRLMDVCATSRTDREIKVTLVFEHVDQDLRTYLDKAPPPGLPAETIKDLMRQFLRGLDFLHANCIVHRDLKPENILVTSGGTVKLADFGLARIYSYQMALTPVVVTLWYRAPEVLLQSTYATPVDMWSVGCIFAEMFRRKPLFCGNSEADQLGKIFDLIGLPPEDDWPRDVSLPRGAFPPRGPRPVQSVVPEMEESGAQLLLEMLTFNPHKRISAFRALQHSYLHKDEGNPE
CDK4, sequence (P24385 whole entry partner): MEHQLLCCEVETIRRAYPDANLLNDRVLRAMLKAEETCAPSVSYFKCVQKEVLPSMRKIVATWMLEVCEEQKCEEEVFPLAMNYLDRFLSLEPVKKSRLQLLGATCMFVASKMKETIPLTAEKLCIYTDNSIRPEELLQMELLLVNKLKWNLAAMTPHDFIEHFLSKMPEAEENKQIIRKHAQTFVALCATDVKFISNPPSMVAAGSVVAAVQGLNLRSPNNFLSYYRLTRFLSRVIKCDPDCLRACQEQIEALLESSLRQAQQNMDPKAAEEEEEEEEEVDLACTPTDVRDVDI

[6] = target: CDK6 (Homo sapiens, UniProt Q00534); test: cell-free CDK inhibitor assay; format: biochemical; conditions: for fold less potent than palbociclib: CDK6; for IC50: CDK6, cell-free
CDK6, sequence (Q00534 whole entry): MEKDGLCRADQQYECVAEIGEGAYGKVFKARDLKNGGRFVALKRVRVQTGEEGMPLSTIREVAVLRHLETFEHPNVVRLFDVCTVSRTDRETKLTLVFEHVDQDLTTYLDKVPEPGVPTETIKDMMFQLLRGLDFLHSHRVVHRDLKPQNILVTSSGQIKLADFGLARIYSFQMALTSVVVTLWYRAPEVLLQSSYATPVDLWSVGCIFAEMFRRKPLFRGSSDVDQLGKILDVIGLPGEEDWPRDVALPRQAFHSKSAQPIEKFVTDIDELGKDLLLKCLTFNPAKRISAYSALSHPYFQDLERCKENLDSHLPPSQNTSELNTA
CDK6, sequence (P30281 whole entry partner): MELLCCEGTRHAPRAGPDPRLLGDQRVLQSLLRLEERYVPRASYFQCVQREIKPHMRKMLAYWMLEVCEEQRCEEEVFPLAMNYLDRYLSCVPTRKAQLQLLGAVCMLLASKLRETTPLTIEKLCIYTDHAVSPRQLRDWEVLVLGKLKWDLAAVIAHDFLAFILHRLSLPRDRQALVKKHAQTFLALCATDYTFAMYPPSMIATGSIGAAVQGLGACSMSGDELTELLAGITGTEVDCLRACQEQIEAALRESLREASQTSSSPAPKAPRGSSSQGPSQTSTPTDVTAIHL

[7] = system: OVSAHO ovarian cancer cell line; test: growth inhibition, synergy studies; format: cell-based; conditions: for IC50: Homo sapiens, OVSAHO, read-out: IC50 (Mean ± SD)
[8] = system: OVCAR4 ovarian cancer cell line; test: growth inhibition, synergy studies; format: cell-based; conditions: Homo sapiens, OVCAR-4, read-out: IC50 (Mean ± SD)
[9] = system: Kuramochi ovarian cancer cell line; test: growth inhibition, synergy studies; format: cell-based; conditions: read-out: IC50 (Mean ± SD)
[10] = system: OVCAR8 ovarian cancer cell line; test: growth inhibition, synergy studies; format: cell-based; conditions: Homo sapiens, OVCAR-8, read-out: IC50 (Mean ± SD)
[11] = system: SNU119 ovarian cancer cell line; test: growth inhibition, synergy studies; format: cell-based; conditions: read-out: IC50 (Mean ± SD)
[12] = system: 9 ovarian cancer and 2 immortalized fallopian tube epithelial cell lines; test: growth inhibition, expanded panel, average over cell lines; format: cell-based; conditions: average over 11 cell lines
Source text: The ^AveCI for compound 5 in SKOV3 cells was 0.2 indicating strong synergism.

[13] = system: SKOV3 ovarian cancer cell line; test: growth inhibition, synergy studies; format: cell-based; conditions: for IC50: Homo sapiens, SK-OV-3, SKOV3, read-out: IC50 (Mean ± SD)
[14] = system: CaOV3 ovarian cancer cell line; test: growth inhibition, synergy studies; format: cell-based; conditions: Homo sapiens, Caov-3, read-out: IC50 (Mean ± SD)
[15] = system: FT282C11 immortalized fallopian tube epithelial cell line; test: growth inhibition, synergy studies; format: cell-based; conditions: read-out: IC50 (Mean ± SD)
[16] = system: OVCAR5 ovarian cancer cell line; test: growth inhibition, synergy studies; format: cell-based; conditions: Homo sapiens, OVCAR-5, read-out: IC50 (Mean ± SD)
[17] = system: A2780 ovarian cancer cell line; test: growth inhibition, synergy studies; format: cell-based; conditions: Homo sapiens, read-out: IC50 (Mean ± SD)
[18] = system: FT282E1 immortalized fallopian tube epithelial cells; test: 72 h growth inhibition assay; format: cell-based; conditions: Epithelial cell; FT282E1, 72 h
Description: (§3) The cancer cell growth-inhibitory potential of amine-prodrugs (compounds 19-AP1 and 19-AP2) was evaluated. Compounds 19, 19-AP1 and 19-AP2 were screened in ovarian cancer lines (A2780, and OVSAHO) and immortalized fallopian tube epithelial cells (FT282E1) in a 72 h growth inhibition assay.

[19] = system: OVSAHO ovarian cancer line; test: 72 h growth inhibition assay; format: cell-based; conditions: for IC50: Homo sapiens, 72 h
Description: as §3

[20] = system: A2780 ovarian cancer line; test: 72 h growth inhibition assay; format: cell-based; conditions: Homo sapiens, A2780, 72 h
Description: as §3

[21] = cysteine binding assay using Ellman's reagent; format: physicochemical; conditions: 19 vs prodrug under similar conditions
Source text: Without wishing to be bound by theory, it is believed that the α-methylene-γ-butyrolactone moiety on compound 19 is reactive toward biological nucleophiles such as glutathione and cysteine. To determine if secondary amine prodrug of compound 19 (Compound 19-AP1) results in improved stability, the reactivity of analog compound 19 and the prodrug compound 19-AP1 was compared in a cysteine binding assay using Ellman's reagent (FIG. 1B).

[22] = 19F NMR kinetics of release of compound 19 from prodrug; format: physicochemical; conditions: release of 4-trifluoromethylpiperidine
Source text: Next, to assess the kinetics of the release of the active compound 19 from the prodrug compound 19-AP1, the release of 4trifluoropiperidine from the prodrug compound 19-AP1 was monitored using ^19F-NMR spectroscopy following a reported method. (Woods, Mo, Bieberich, Alavanja, & Colby, 2011). […] This observation is consistent with previously reported studies with a prodrug of parthenolide.

[23] = Phase II and III clinical trials; cited from earlier work

SMILES: O=C(NC1CCNCC1)c1[nH]ncc1NC(=O)c1c(Cl)cccc1Cl [AT7519, reference compound]
potency rank among inhibitors treated as single agents [1]: AT7519>compound 19>parthenolide>palbociclib

SMILES: C#CCN1C(=O)C2(CC(CN3CCC(C(F)(F)F)CC3)C(=O)O2)c2ccccc21 (stereo not drawn) [Compound 4, 1′-(prop-2-yn-1-yl)-4-((4-(trifluoromethyl)piperidin-1-yl)methyl)-3,4-dihydro-5H-spiro[furan2,3′-indoline]-2′,5-dione]
covalent binding of IKKβ protein [2]: observed | covalent binding of RELA protein [3]: observed

SMILES: O=C(NC1CCN(CC2CC3(OC2=O)C(=O)Nc2ccccc23)CC1)c1n[nH]cc1NC(=O)c1c(Cl)cccc1Cl (stereo not drawn) [Compound 7, 4-(2,6-dichlorobenzamido)-N-(1-((2′,5-dioxo-4,5-dihydro-3H-spiro[furan-2,3′-indolin]-4yl)methyl)piperidin-4-yl)-1H-pyrazole-3-carboxamide]
potency relative to the palbociclib based compounds (compounds 5 and 6) [1]: more potent

SMILES: C/C1=C\CCC[C@@]2(C)O[C@@H]2[C@H]2OC(=O)C(CN3CCC(NC(=O)c4n[nH]cc4NC(=O)c4c(Cl)cccc4Cl)CC3)[C@@H]2C1 (stereo partly drawn) [Compound 8, 4-(2,6-dichlorobenzamido)-N-(1-(((3R,3aS,9aR,10aS,10bS,E)-6,9a-dimethyl-2-oxo2,3,3a,4,5,8,9,9a,10a,10b-decahydrooxireno[2′,3′:9,10]cyclodeca[1,2-b]furan-3yl)methyl)piperidin-4-yl)-1H-pyrazole-3-carboxamide]
potency relative to the palbociclib based compounds (compounds 5 and 6) [1]: more potent

SMILES: C=C1CC2(OC1=O)C(=O)Nc1ccccc12 (stereo not drawn) [Compound 19, 4-methylene-3,4-dihydro-5H-spiro(furan-2,3′-indoline)-2′,5-dione, reference compound]
potency rank among inhibitors treated as single agents [1]: AT7519>compound 19>parthenolide>palbociclib | IC50 [18]: 5.28 ± 0.17 µM | IC50 [19]: 20.4 ± 4.71 µM | IC50 [20]: 2.15 ± 0.15 µM | reactivity towards free cysteine [21]: reacted rapidly

SMILES: CN(C)CC1CC2(OC1=O)C(=O)Nc1ccccc12 (stereo not drawn) [Compound 19-AP2, 4-((dimethylamino)methyl)-3,4-dihydro-5H-spiro[furan-2,3′-indoline]-2′,5-dione]
IC50 [18]: 12 ± 1.26 µM | potency relative to parent compound 19 [19]: more potent | IC50 [19]: 9.81 ± 1.07 µM | IC50 [20]: 5.38 ± 0.33 µM

SMILES: COc1cccc2c1C(=O)c1c(O)c3c(c(O)c1C2=O)C[C@@](O)(/C(CO)=N/NC(=O)CCCCCN1C(=O)C=CC1=O)C[C@@H]3O[C@H]1C[C@H](N)[C@H](O)[C@H](C)O1 [INNO-206]
cardiotoxicity profile compared with doxorubicin [23]: far superior

Second part, led by results:

fold less potent than palbociclib [5]: ~100 fold | IC50 [5]: 0.046 ± 0.014 µM | fold less potent than palbociclib [6]: ~20 fold | IC50 [6]: 0.009 ± 0.001 µM | IC50 [7]: 11.4 ± 0.9 µM | IC50 [8]: 17.9 ± 1.4 µM | IC50 [9]: > 40 µM | IC50 [10]: 9.1 ± 0.9 µM | IC50 [11]: 8.8 ± 1.6 µM | IC50 [13]: 15.4 ± 1.5 µM | IC50 [14]: 5.5 ± 0.5 µM | IC50 [16]: 9.3 ± 0.9 µM | IC50 [17]: 6.6 ± 1.3 µM
SMILES: CC(=O)c1c(C)c2cnc(Nc3ccc(N4CCN(CC5CC6(OC5=O)C(=O)Nc5ccccc56)CC4)cn3)nc2n(C2CCCC2)c1=O (stereo not drawn) [Compound 5, 4-((4-(6-((6-Acetyl-8-cyclopentyl-5-methyl-7-oxo-7,8-dihydropyrido[2,3-d]pyrimidin-2yl)amino)pyridin-3-yl)piperazin-1-yl)methyl)-3,4-dihydro-5H-spiro[furan-2,3′-indoline]-2′,5dione]
IC50 [4]: 14.6 ± 1.2 µM | average combination index (AveCI) ([4]; FT282E1 cells): > 1.0 | average combination index (AveCI) ([7]; OVSAHO cells, effective dose (ED) 50, 75 and 90): 0.9 | fold less potent than the corresponding 1:1 mixture, on an average [12]: equipotent | fold more potent than the parthenolide-palbociclib compound 6 [12]: ~3 fold | average combination index (AveCI) ([13]; SKOV3 cells): 0.2 | IC50 [15]: 21.8 ± 1.5 µM

fold less potent than palbociclib [5]: ~200 fold | IC50 [5]: 0.085 ± 0.018 µM | fold less potent than palbociclib [6]: ~50 fold | IC50 [6]: 0.018 ± 0.001 µM | IC50 [7]: 31.1 ± 2.3 µM | IC50 [8]: > 40 µM | IC50 [9]: > 40 µM | IC50 [10]: 38.4 ± 4.5 µM | IC50 [11]: 34.9 ± 6.3 µM | IC50 [13]: > 40 µM | IC50 [14]: 25 ± 3.2 µM | IC50 [16]: 32.6 ± 4.4 µM | IC50 [17]: 31 ± 7 µM
SMILES: CC(=O)c1c(C)c2cnc(Nc3ccc(N4CCN(CC5C(=O)O[C@@H]6[C@H]7O[C@]7(C)CCC/C=C(\C)C[C@@H]56)CC4)cn3)nc2n(C2CCCC2)c1=O (stereo partly drawn) [Compound 6, 6-Acetyl-8-cyclopentyl-2-((5-(4-(((3R,3aS,9aR,10aS,10bS,E)-6,9a-dimethyl-2-oxo2,3,3a,4,5,8,9,9a,10a,10b-decahydrooxireno[2′,3′:9,10]cyclodeca[1,2-b]furan-3yl)methyl)piperazin-1-yl)pyridin-2-yl)amino)-5-methylpyrido[2,3-d]pyrimidin-7(8H)-one]
IC50 [4]: > 40 µM | fold less potent than the corresponding 1:1 mixture, on an average [12]: ~7 fold | IC50 [15]: 25.6 ± 4.8 µM

period over which the prodrug is hydrolyzed slowly to release the active compound 19 [22]: 72 h | IC50 [19]: 10.8 ± 1.28 µM | IC50 [20]: 5.71 ± 0.24 µM | reactivity towards free cysteine [21]: more stable
SMILES: O=C1OC2(CC1CN1CCC(C(F)(F)F)CC1)C(=O)Nc1ccccc12 (stereo not drawn) [Compound 19-AP1, 4-((4-(trifluoromethyl)piperidin-1-yl)methyl)-3,4-dihydro-5H-spiro[furan-2,3′-indoline]-2′,5dione]
IC50 [18]: 10.2 ± 0.56 µM | potency relative to parent compound 19 [19]: more potent

— patent publication US20230174548A1, “SYMBIOTIC PRODRUGS FOR THE TREATMENT OF CANCER AND OTHER DISEASES” (BOARD OF REGENTS OF THE UNIVERSITY OF NEBRASKA, priority 2020, published 2023)
